How the values were obtained:
[1] = system: Aβ40 in conditioned medium of cells expressing amyloid precursor protein; assay: In vitro BACE cell-based assay (HEK cell assay, Aβ40 sandwich ELISA); conditions: Homo sapiens, HEK293; average IC50; inhibition of Aβ40 after 24 h incubation
Procedure: In Vitro BACE Cell-Based Assay
The cell-based assay measures inhibition or reduction of Aβ40 in conditioned medium of test compound treated cells expressing amyloid precursor protein.
Cells stably expressing Amyloid Precursor Protein (APP) were plated at a density of 40K cells/well in 96 well plates (Costar). The cells were cultivated for 24 hours at 37° C. and 5% CO2 in DMEM supplemented with 10% FBS. The test compounds were then added to cells in 10-point dose response concentrations with the starting concentration being either 100 μM or 10 μM. The compounds were diluted from stock solutions in DMSO and the final DMSO concentration of the test compounds on cells was 0.1%. After 24 h of incubation with the test compounds the supernatant conditioned media was collected and the Aβ40 levels were determined using a sandwich ELISA. The IC50 of the compound was calculated from the percent of control or percent inhibition of Aβ40 as a function of the concentration of the test compound.
The sandwich ELISA to detect Aβ40 was performed in 96 well microtiter plates, which were pre-treated with goat anti-rabbit IgG (Pierce). The capture and detecting antibody pair that were used to detect Aβ40 from cell supernatants were affinity purified pAb40 (Biosource) and biotinylated 6E10 (Signet Labs Inc.), respectively. The optimal concentration for the pAb40 antibody was 3 μg/ml in Superblock/TBS (Pierce) that was supplemented with 0.05% Tween 20 (Sigma).
Cellular supernatants were incubated with the capture antibody for 3 h at 4° C., followed by 3 wash steps in TBS-tween (0.05%). The detecting antibody incubation was for 2 h at 4° C., again followed by the wash steps as described previously. The final readout of the ELISA is Time-Resolved Fluorescence (counts per minute) using Delfia reagents Streptavidin-Europium and Enhancement solutions (Perkin Elmer) and the Victor 2 multilabel counter (Perkin Elmer).

BACE 1 = BACE 1 (Homo sapiens (Human), UniProt P56817); assay: In vitro enzymatic BACE FRET assay; format: biochemical; conditions: average IC50; enzyme 0.2 nM, FRET substrate 50 nM, pH 4.2
Procedure: In Vitro Enzymatic BACE FRET (Fluorescence Resonance Energy Transfer) Assay
The assay buffer used in this screen is 0.05 M acetate, pH 4.2, 10% DMSO final, 100 uM genapol (which is a nonionic detergent, below its Critical Micelle Concentration). […] This assay is effectively started by the addition of FRET substrate (50 nM) and the combination is incubated for one hour. The FRET assay is terminated with by addition of Tris buffer, which raises the pH to neutrality, and the fluorescence is determined. The FRET substrate is a peptide with commercially available fluorophore and quencher, on opposite sides of the BACE cleavage site. Proteolytic cleavage of the FRET substrate releases quenching of fluorescence (excitation […] and […]).

Chain of BACE 1 (P56817 46-501, species assumed): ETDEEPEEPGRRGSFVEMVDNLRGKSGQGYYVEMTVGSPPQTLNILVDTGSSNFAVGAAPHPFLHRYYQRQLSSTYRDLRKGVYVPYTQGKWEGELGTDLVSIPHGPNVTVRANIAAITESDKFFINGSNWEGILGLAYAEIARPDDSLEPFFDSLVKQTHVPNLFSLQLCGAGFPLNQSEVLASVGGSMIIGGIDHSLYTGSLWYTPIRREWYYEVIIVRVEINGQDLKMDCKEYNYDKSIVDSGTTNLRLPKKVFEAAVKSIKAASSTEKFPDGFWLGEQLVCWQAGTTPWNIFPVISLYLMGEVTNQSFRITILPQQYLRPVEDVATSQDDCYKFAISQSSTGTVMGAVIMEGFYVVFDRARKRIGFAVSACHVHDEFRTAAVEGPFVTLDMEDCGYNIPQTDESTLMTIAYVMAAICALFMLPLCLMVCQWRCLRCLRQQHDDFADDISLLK

SMILES	IC50 [1]	IC50 (BACE 1)
NC1=N[C@]2(COCC1)c1cc(-c3cccnc3F)ccc1Oc1cnc(-c3ccnc(F)c3)cc12 [Example 13, (5R)-7-(2-fluoro-3-pyridinyl)-3-(2-fluoro-4-pyridinyl)-6′,7′-dihydrospiro[chromeno-[2,3-c]-pyridine-5,3′-[1,4]oxazepin]-5′-amine]	78 nM	139 nM
NC1=NC2(COCC1)c1cc(-c3cccnc3F)ccc1Oc1cnc(-c3ccnc(F)c3)cc12 (racemic) [Example 2, (5R/S)-7-(2-fluoro-3-pyridinyl)-3-(2-fluoro-4-pyridinyl)-6′,7′-dihydrospiro-[chromeno-[2,3-c]pyridine-5,3′-[1,4]oxazepin]-5′-amine]	3 nM	1 nM
NC1=N[C@]2(COCC1)c1cc(Br)ccc1Oc1cnc(Cl)cc12 [Example 3A, (5R)-7-bromo-3-chloro-6′,7′-dihydrospiro-[chromeno[2,3-c]pyridine-5,3′-[1,4]oxazepin]-5′-amine]	6370 nM	9230 nM
NC1=N[C@@]2(COCC1)c1cc(Br)ccc1Oc1cnc(Cl)cc12 [Example 3B, (5S)-7-bromo-3-chloro-6′,7′-dihydrospiro-[chromeno[2,3-c]-pyridine-5,3′-[1,4]oxazepin]-5′-amine]	892 nM	3830 nM
NC1=N[C@@]2(COCC1)c1cc(-c3cccnc3F)ccc1Oc1cnc(-c3ccnc(F)c3)cc12 [Example 14, (5S)-7-(2-fluoro-3-pyridinyl)-3-(2-fluoro-4-pyridinyl)-6′,7′-dihydrospiro[chromeno-[2,3-c]-pyridine-5,3′-[1,4]oxazepin]-5′-amine]	1 nM	0.5 nM
CC(C)(C)COc1cc(F)c2c(c1)C1(COCCC(N)=N1)c1cc(-c3cccnc3F)ccc1O2 (racemic) [Example 4, (3R/S)-2′-(2,2-dimethylpropoxy)-4′-fluoro-7′-(2-fluoro-3-pyridinyl)-6,7-dihydrospiro[1,4-oxazepine-3,9′-xanthen]-5-amine]	12 nM	1 nM

Further lines, results first:

IC50 [1]	IC50 (BACE 1)	SMILES
4 nM	3 nM	NC1=N[C@@]2(CCOC1)c1cc(-c3cccnc3F)ccc1Oc1cnc(N3CCC(F)(F)C3)cc12 [Example 19, (S)-3-(3,3-difluoropyrrolidin-1-yl)-7-(2-fluoropyridin-3-yl)-6′,7′-dihydro-2′H-spiro[chromeno[2,3-c]pyridine-5,5′-[1,4]oxazepin]-3′-amine]
300 nM	285 nM	CC(C)(C)COc1cc(F)c2c(c1)[C@@]1(COCCC(N)=N1)c1cc(-c3cccnc3F)ccc1O2 [Example 16, (3R)-2′-(2,2-dimethylpropoxy)-4′-fluoro-7′-(2-fluoro-3-pyridinyl)-6,7-dihydrospiro[1,4-oxazepine-3,9′-xanthen]-5-amine]
689 nM	369 nM	NC1=N[C@]2(CCOC1)c1cc(-c3cccnc3F)ccc1Oc1cnc(-c3ccnc(F)c3)cc12 [Example 17, (5R)-7-(2-fluoro-3-pyridinyl)-3-(2-fluoro-4-pyridinyl)-6′,7′-dihydro-2′H-spiro[chromeno[2,3-c]pyridine-5,5′-[1,4]oxazepin]-3′-amine]
7 nM	0.5 nM	CC(C)(C)COc1cc(F)c2c(c1)[C@]1(COCCC(N)=N1)c1cc(-c3cccnc3F)ccc1O2 [Example 15, (3S)-2′-(2,2-dimethylpropoxy)-4′-fluoro-7′-(2-fluoro-3-pyridinyl)-6,7-dihydrospiro[1,4-oxazepine-3,9′-xanthen]-5-amine]
